# Test results published in PMC11748629, “Unidirectional MCM translocation away from ORC drives origin licensing” (Nature Communications, 2025).
# How the values were obtained:
# Test in all cases: cryo-EM structure
# MCM-Cdt1 complex [1] = test system: T1, MCM-Cdt1 complex; format: binding, Saccharomyces cerevisiae; conditions: OC1M-Mcm5RA complex (no Cdc6) on ARS1 DNA with ORC; 2 mM ATP added, Mg2+, pH 7.6, 30 C; sites Mcm5/2, 2/6, 6/4 and 4/7; conformers 1 and 2
# T1 construct: gene MCM2; with Cell division cycle protein CDT1
# MCM-Cdt1 complex [2] = test system: T1, MCM-Cdt1 complex; format: binding, Saccharomyces cerevisiae; conditions: OCCM-Mcm2RA complex on ARS1 DNA with ORC-Cdc6; 3 mM ATP added, Mg2+, pH 7.6, 30 C; all six MCM ATPase sites occupied, ADP assigned from density
# ORC complex = target: T2, ORC complex (Saccharomyces cerevisiae, UniProt P50874+P54784+P54790+P54791); format: binding; conditions: wild-type ORC in OCCM-Mcm2RA (sites Orc4-Orc1, Orc5-Orc4, Orc3-Orc5) and in OC1M-Mcm5RA (Orc5-Orc4, Orc3-Orc5); 2-3 mM ATP, Mg2+, pH 7.6, 30 C
# T2 construct: gene ORC1; with Origin recognition complex subunit 2; Origin recognition complex subunit 6
# T2 sequence (P54784 whole entry): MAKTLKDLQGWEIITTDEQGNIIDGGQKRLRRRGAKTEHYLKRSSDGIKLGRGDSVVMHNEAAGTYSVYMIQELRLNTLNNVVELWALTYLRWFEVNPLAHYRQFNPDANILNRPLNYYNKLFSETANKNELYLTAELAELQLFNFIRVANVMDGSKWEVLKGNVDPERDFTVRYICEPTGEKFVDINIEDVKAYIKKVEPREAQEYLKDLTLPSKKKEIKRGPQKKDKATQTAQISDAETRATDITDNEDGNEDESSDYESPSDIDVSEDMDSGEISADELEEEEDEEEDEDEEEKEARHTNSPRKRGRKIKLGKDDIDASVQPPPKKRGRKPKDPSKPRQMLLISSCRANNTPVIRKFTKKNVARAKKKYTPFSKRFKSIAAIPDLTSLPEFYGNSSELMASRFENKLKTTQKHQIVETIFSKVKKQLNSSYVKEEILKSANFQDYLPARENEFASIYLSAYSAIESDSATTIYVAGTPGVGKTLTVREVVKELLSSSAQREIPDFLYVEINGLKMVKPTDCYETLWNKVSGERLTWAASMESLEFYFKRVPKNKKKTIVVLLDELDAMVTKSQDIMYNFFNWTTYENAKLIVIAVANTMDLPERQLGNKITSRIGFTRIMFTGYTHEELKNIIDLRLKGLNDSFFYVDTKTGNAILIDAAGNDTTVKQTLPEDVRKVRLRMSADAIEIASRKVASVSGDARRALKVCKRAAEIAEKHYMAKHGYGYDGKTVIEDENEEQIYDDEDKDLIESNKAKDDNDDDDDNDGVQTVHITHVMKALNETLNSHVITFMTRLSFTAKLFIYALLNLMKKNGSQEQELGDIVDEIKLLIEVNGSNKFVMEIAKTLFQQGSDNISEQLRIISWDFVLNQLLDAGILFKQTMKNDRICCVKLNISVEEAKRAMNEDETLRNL
# T2 sequence (P54790 2-616): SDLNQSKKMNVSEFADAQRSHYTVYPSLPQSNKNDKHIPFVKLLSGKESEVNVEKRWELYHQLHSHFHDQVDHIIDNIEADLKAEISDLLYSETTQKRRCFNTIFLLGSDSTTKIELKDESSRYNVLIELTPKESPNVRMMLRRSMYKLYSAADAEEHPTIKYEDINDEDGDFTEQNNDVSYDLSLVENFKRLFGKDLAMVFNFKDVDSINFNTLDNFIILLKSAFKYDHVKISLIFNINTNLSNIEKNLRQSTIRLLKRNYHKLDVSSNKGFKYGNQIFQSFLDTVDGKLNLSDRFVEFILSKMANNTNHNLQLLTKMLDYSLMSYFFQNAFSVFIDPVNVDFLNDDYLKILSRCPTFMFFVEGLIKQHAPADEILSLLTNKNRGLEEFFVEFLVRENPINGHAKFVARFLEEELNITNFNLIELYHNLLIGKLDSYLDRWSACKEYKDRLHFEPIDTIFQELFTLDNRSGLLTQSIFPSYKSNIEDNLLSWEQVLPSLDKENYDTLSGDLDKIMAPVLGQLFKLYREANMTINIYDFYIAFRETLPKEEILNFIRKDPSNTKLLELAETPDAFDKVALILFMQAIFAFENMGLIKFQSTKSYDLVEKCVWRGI
# T2 sequence (P54791 whole entry): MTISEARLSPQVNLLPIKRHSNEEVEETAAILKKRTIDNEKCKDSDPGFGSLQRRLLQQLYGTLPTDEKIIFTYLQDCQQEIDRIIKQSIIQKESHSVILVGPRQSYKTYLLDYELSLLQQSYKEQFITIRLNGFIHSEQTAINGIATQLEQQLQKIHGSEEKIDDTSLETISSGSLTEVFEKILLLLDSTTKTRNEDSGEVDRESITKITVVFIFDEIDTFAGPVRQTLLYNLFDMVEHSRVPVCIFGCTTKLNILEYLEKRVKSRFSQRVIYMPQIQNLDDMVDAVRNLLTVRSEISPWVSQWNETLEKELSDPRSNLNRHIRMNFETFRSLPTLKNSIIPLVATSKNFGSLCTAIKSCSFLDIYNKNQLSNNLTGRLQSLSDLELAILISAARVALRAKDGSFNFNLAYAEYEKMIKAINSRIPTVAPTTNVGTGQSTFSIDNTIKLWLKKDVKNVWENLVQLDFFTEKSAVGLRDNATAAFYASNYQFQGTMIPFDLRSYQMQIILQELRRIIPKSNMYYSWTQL
# T2 sequence (P50874 whole entry): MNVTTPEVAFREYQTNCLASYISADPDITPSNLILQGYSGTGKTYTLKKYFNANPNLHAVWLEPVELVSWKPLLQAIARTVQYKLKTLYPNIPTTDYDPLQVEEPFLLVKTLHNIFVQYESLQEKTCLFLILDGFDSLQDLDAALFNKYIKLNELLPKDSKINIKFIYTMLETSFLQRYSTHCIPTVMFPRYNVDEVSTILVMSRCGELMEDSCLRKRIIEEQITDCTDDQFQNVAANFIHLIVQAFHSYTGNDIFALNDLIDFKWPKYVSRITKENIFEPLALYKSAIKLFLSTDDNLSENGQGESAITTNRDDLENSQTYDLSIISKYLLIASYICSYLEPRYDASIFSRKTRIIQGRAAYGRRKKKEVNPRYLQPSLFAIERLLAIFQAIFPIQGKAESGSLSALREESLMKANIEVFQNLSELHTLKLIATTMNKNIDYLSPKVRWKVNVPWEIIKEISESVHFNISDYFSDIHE
# T2 sequence (P32833 whole entry partner): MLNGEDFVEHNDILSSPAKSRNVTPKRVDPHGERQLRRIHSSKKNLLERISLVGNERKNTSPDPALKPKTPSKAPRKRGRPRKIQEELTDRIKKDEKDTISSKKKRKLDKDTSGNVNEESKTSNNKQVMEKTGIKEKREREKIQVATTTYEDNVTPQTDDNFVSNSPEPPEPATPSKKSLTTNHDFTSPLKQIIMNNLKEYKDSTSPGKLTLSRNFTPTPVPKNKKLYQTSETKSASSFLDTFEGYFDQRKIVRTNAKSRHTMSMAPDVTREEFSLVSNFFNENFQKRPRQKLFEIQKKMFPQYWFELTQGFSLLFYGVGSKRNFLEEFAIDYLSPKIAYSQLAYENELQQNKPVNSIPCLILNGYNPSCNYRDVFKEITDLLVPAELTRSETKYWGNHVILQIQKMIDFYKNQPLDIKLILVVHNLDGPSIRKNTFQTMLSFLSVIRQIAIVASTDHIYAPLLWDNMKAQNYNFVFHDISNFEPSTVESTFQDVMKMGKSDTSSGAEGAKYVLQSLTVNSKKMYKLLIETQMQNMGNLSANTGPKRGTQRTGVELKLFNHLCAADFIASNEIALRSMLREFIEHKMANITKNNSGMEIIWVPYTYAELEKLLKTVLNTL
# T2 sequence (P38826 whole entry partner): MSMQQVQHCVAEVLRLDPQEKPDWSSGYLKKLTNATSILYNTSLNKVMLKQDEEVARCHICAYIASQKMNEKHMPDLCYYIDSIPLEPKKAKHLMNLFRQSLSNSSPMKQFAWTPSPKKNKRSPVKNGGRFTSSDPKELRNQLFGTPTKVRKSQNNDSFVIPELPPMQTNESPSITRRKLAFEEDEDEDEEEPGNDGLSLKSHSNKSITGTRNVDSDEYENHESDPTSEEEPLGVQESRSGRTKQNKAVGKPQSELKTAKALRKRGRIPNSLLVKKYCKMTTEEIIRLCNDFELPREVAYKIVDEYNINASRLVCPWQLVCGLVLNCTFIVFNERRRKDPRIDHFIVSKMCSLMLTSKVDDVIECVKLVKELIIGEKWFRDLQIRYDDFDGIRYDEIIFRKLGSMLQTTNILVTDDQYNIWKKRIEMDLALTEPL
smiles,measurement,setting,value
Nc1ncnc2c1ncn2[C@@H]1O[C@H](COP(=O)(O)OP(=O)(O)O)[C@@H](O)[C@H]1O [ADP],cryo-EM structure,MCM-Cdt1 complex [1],"Four ATPase sites were identified as occupied, with ADP modelled based on the density"
same,cryo-EM structure,MCM-Cdt1 complex [2],"All six ATPase sites were identified as occupied, with ADP modelled based on the density"
Nc1ncnc2c1ncn2[C@@H]1O[C@H](COP(=O)(O)OP(=O)(O)OP(=O)(O)O)[C@@H](O)[C@H]1O [ATP],cryo-EM structure,ORC complex,"ATP can only be observed in the Orc4-Orc1, Orc5-4 and Orc3-5 nucleotide-binding sites"
